The record followed here is ChEMBL document CHEMBL1127517 (J Med Chem, 1994).

Data set [1] concerns Rattus norvegicus. Briefly: Distribution of radio activity in tissues of unfasted male rats was measured at 120 min of time in lung after intravenous administration. Format: ADME, organism-based. Particulars: in vivo, 2 h.
The test system of data set [2] is Rattus norvegicus. The experiment in a line: Distribution of radio activity in tissues of unfasted male rats was measured at 60 min of time in spleen after intravenous administration. Format: ADME, organism-based. Particulars: in vivo, 1 h.
For data set [3], the system named is Rattus norvegicus. The experiment in a line: Distribution of radio activity in tissues of unfasted male rats was measured as regional uptake at 60 min of time in striatum after intravenous administration. The settings on record: in vivo, 1 h. Type of data set: ADME, organism-based.
Data set [4] deals with Rattus norvegicus. The experiment in a line: Distribution of radio activity in tissues of unfasted male rats was measured at 120 min of time in kidney after intravenous administration. Format: ADME, organism-based. The settings on record: in vivo, 2 h.
Data set [5] deals with Rattus norvegicus. The experiment in a line: Distribution of radio activity in tissues of unfasted male rats was measured as regional uptake at 120 min of time in ST/CB after intravenous administration. Format: ADME, organism-based. The settings on record: in vivo, 2 h.
Data set [6] deals with Rattus norvegicus. The experiment in a line: Distribution of radio activity in tissues of unfasted male rats was measured at 60 min of time in liver after intravenous administration. Particulars: in vivo, 1 h. Format: ADME, organism-based.
In data set [7] the test system is Rattus norvegicus. Briefly: Distribution of radio activity in tissues of unfasted male rats was measured at 120 min of time in blood after intravenous administration. Type of data set: ADME, organism-based. Particulars: in vivo, 2 h.
Data set [8] relates to Rattus norvegicus. Briefly: Distribution of radio activity in tissues of unfasted male rats was measured at 30 min of time in heart after intravenous administration. Format: ADME, organism-based. Particulars: in vivo, 0.5 h.
Data set [9] has as its system Rattus norvegicus. The experiment in a line: Distribution of radio activity in tissues of unfasted male rats was measured at 30 min of time in liver after intravenous administration. Format: ADME, organism-based. The settings on record: in vivo, 0.5 h.
Data set [10] concerns Rattus norvegicus. The experiment in a line: Distribution of radio activity in tissues of unfasted male rats was measured at 30 min of time in muscle after intravenous administration. Type of data set: ADME, organism-based, Muscle tissue. The settings on record: in vivo, 0.5 h.
Data set [11] deals with Rattus norvegicus. The experiment in a line: Distribution of radio activity in tissues of unfasted male rats was measured as at 2 min of time in skin after intravenous administration. The settings on record: in vivo. Format: ADME, organism-based.
Data set [12] relates to Rattus norvegicus. The experiment in a line: Distribution of radio activity in tissues of unfasted male rats was measured as regional uptake at 120 min of time in cerebellum after intravenous administration. Particulars: in vivo, 2 h. Type of data set: ADME, organism-based.
Data set [13] deals with Rattus norvegicus. The experiment in a line: Distribution of radio activity in tissues of unfasted male rats was measured alungblood after intravenous administration. Type of data set: ADME, organism-based, Lung. Particulars: in vivo.
The subject of data set [14] is Rattus norvegicus. Briefly: Distribution of radio activity in tissues of unfasted male rats was measured at 120 min of time in skin after intravenous administration. Type of data set: ADME, organism-based. Particulars: in vivo, 2 h.
Data set [15] concerns Rattus norvegicus. Briefly: Distribution of radio activity in tissues of unfasted male rats was measured at 60 min of time in brain after intravenous administration. Type of data set: ADME, organism-based. The settings on record: in vivo, 1 h.
The test system of data set [16] is Rattus norvegicus. Briefly: Distribution of radio activity in tissues of unfasted male rats was measured as at 2 min of time in lung after intravenous administration. Type of data set: ADME, organism-based. Particulars: in vivo.
Data set [17] relates to Rattus norvegicus. The experiment in a line: Distribution of radio activity in tissues of unfasted male rats was measured at 120 min of time in lung after intravenous administration. Type of data set: ADME, organism-based. Particulars: in vivo, 2 h.
The subject of data set [18] is Rattus norvegicus. The experiment in a line: Distribution of radio activity in tissues of unfasted male rats was measured at 2 min of time in skin after intravenous administration. Type of data set: ADME, organism-based. Particulars: in vivo.

As to `COC(=O)C1C(c2ccc(Cl)cc2)CC2CCC1N2C/C=C\I` (stereo not given), the Injected dose/organ with Rattus norvegicus [1] is given as 0.4%; in the data set with Rattus norvegicus [2] it was 0.11%; with Rattus norvegicus [4], 0.46%; with Rattus norvegicus [6] it was 1.6%; in the data set with Rattus norvegicus [7] it was 5.16%; with Rattus norvegicus [8] it was 0.22%. In addition, the Injected dose/organ was determined as 2.78% with Rattus norvegicus [9]; 17.43% with Rattus norvegicus [10]; 7.27% in the data set with Rattus norvegicus [11]; 1.23% in the data set with Rattus norvegicus [13]; 19.3% in the data set on Rattus norvegicus [14]; 0.07% in the data set on Rattus norvegicus [15]. Besides, the Dose/g with Rattus norvegicus [3] amounted to 0.11%; in the data set with Rattus norvegicus [5], 1.9%; in the data set on Rattus norvegicus [12] it was 0.02%.
As to `COC(=O)C1C(c2ccc(Cl)cc2)CC2CCC1N2C/C=C/I` (stereo not given), the Injected dose/organ in the data set on Rattus norvegicus [2] was 0.12%; with Rattus norvegicus [4] it was 0.46%; in the data set on Rattus norvegicus [6] it was 1.97%; with Rattus norvegicus [7] it was 4.77%; in the data set with Rattus norvegicus [8], 0.29%; in the data set with Rattus norvegicus [9], 3.72%. Moreover, the Injected dose/organ is recorded as 18.54% with Rattus norvegicus [10]; 1.19% with Rattus norvegicus [16]; 0.31% with Rattus norvegicus [17]; 5.14% in the data set with Rattus norvegicus [18]; 20% in the data set with Rattus norvegicus [14]; 0.28% with Rattus norvegicus [15]. Also, the Dose/g in the data set with Rattus norvegicus [3] came out at 1.23%; in the data set with Rattus norvegicus [5] it was 16.5%; in the data set with Rattus norvegicus [12], 0.037%.
